{"source": "patent US4477670A", "about": "“4-Aryloxy-1,2,3,4-tetrahydroisoquinolines” (Hoechst-Roussel Pharmaceuticals Inc., priority 1982, dated 1984)", "key": {"[1]": {"system": "phenyl-para-quinone induced writhing", "experiment": "phenyl-para-quinone writhing assay in mice (analgesia)", "assay_type": "in vivo", "settings": "subcutaneous", "source_text": "The compounds of the invention are primarily useful as analgesic and anticonvulsant agents. […] Exptl. Biol. Med., 95, 729 (1953)]. Listed below in Table III is the analgesic effect of some of the compounds of the invention, expressed as percent inhibition of phenyl-para-quinone induced writhing."}, "[2]": {"system": "5-HTP activity (continuous forelimb clonus)", "experiment": "L-5-hydroxytryptophan (5 HTP) potentiation in rats", "assay_type": "in vivo, male Wistar rats", "settings": "Rattus norvegicus, ip", "experimental": "Groups of six male Wistar rats (150-200 grams) are used in this test procedure. Four hours prior to testing pargyline HCl is prepared and administered by subcutaneous injection at 75 mg/kg in 1% saline and at a dosage volume of 1.25 ml/kg. Thirty minutes before testing, drugs are prepared using distilled water and, if insoluble, a suitable surfactant is added. Control groups receive vehicle. Drugs are routinely administered intraperitoneally (i.p.) at a dosage volume of 10 ml.kg. L-5-Hydroxytryptophan is prepared at 1.0 mg/kg in distilled water and is administered i.p. in volumes proportional to 10 ml/kg. Drugs are administered in a randomized manner and 5-minute post 5-HTP treatment the animals are observed for 15 minutes. […] Potentiation is expressed as normalized percent potentiation relative to vehicle control. When a compound is observed to potentiate 5-HTP activity, a dose range using ten animals per group is run in the same manner. An effective dose (ED) is determined by probit analysis."}, "[3]": {"system": "supra maximal electroshock (extensor tonus)", "experiment": "supra maximal electroshock assay (anticonvulsant)", "assay_type": "in vivo, male mice (Charles River, CD-1)", "settings": "Mus musculus, ip, read-out: % Inhibition (anticonvulsant effect)", "experimental": "The compounds of the present invention are also useful as anticonvulsant agents for mammals as evidenced by the supra maximal electroshock assay of Woodbury, L. A. and Davenport, U. D. in Arch. Int. Pharmacodynam, Vol. 92 (1952) at pages 97-107.\nIn this method, groups of male mice are used (Charles River, CD-1), 18-30 grams. Drugs are prepared using distilled water and if insoluble, a surfactant is added. Control animals receive vehicle. Drugs are routinely administered intraperitoneally. The route of administration may be varied (orally, subcutaneously). The dosage volume is 10 ml/kg.\nThe animal's eyes are placed across the output terminals of an A.C. shocker that delivers 205 volts rms for 300 milliseconds. Electrode paste coats the animal's eyes at the point of contact with the terminals.\nProtection is expressed as normalized percent inhibition relative to vehicle control.\nA time response is carried out using 6 animals per group. Animals are tested at 30, 60 and 120 minutes post-drug. Additional time periods are tested if indicated by previous tests.\nListed below in Table II is the anticonvulsant effect of some of the compounds of the invention expressed as percent inhibition."}, "[4]": {"system": "ptosis of tetrabenazine-induced depression", "experiment": "inhibition of tetrabenazine-induced depression (ptosis) in mice", "assay_type": "in vivo", "settings": "intraperitoneal"}, "[5]": {"experiment": "diuretic activity in rats, drug to urea ratio", "assay_type": "in vivo, female Wistar rats", "settings": "oral, urine 0-5 hours, vs urea 1000 mg/kg", "experimental": "Selected compounds of the present invention are useful as diuretics. The diuretic activity of the compounds is measured in the following manner. Groups of female Wistar rats (150-200 grams) are used and they are food deprived 16 hours prior to testing. Drugs are prepared in 1% saline and administered in a dosage volume of 15 ml/kg orally. After dosing each animal is placed in an individual metabolic cage. Water is permitted ad libitum. Urine is collected from 0-5 hours after dosing. […] The individual urine samples are analyzed for sodium and/or potassium and chloride. Sodium and potassium values are typically determined using a flame photometer. Chloride determinations are typically made by a chloride analyzer. Sodium, potassium and chloride values are expressed as the mean milliequivalents (mEq)/kg/5 hrs. Diuresis is expressed as the mean milliliters (ml)/kg/5 hrs. The mean values obtained for sodium, potassium, chloride and diuresis are expressed in a ratio to the sodium, potassium, chloride and diuresis values obtained for the urea treated group. This ratio is called the \"drug to urea ratio.\" A drug to urea ratio greater than or equal to one for diuresis and/or sodium is indicative of diuretic activity. The diuretic effect of some of the compounds of the invention, expressed as the ratio of (a) the mean values obtained for diuresis (urine volume) of the compound treated group to the urea treated group and (b) the mean values obtained for sodium of the compound treated group to the urea treated group, are given in Table I."}, "[6]": {"settings": "intraperitoneal, probit analysis, read-out: ED50 (5-HTP potentiation)"}}, "note": "Counter-ions that a name gives are not always drawn. Like-named read-outs stand apart in the source and are kept apart here."}
{"compound": "1,2,3,4-tetrahydro-4-(p-trifluoromethylphenyl)isoquinoline hydrochloride", "values": [{"measurement": "% Inhibition of phenyl-para-quinone induced writhing", "setting": "[1]; 25.0 mg/kg", "value": 51, "unit": "%"}]}
{"compound": "CN1Cc2ccccc2C(Oc2cccc(C(F)(F)F)c2)C1.O=C(O)/C=C\\C(=O)O", "note": "(stereo not drawn) [2-Methyl-1,2,3,4-tetrahydro-4-(m-trifluoromethylphenoxy)isoquinoline maleate]", "values": [{"measurement": "ED50", "setting": "[2]; [6]", "value": 7.8, "unit": "mg/kg"}, {"measurement": "inhibition in vivo at 50 mg/kg", "setting": "[3]; intraperitoneal", "value": 67, "unit": "%"}, {"measurement": "inhibition of the ptosis of tetrabenazine-induced depression", "setting": "[4]; 20 mg/kg", "value": 50, "unit": "%"}]}
{"compound": "CN(C)CCCN1Cc2ccccc2C(Oc2ccc(C(F)(F)F)cc2)C1", "note": "(stereo not drawn) [2-(3-Dimethylaminopropyl)-1,2,3,4-tetrahydro-4-(p-trifluoromethylphenoxy)isoquinoline dihydrochloride]", "values": [{"measurement": "inhibition in vivo at 14.4 mg/kg", "setting": "[3]; intraperitoneal, 14.4 mg/kg", "value": 50, "unit": "%"}]}
{"compound": "CN1Cc2ccccc2C(Oc2ccc(C#N)cc2)C1", "note": "(stereo not drawn) [4-(p-Cyanophenoxy)-2-methyl-1,2,3,4-tetrahydroisoquinoline]", "values": [{"measurement": "Diuresis Drug to Urea Ratio (Vol.)", "setting": "[5]; 50 mg/kg", "value": 1.1}, {"measurement": "Sodium Drug to Urea Ratio", "setting": "[5]; 50 mg/kg", "value": 1.2}]}
{"compound": "CN(C)CCCN1Cc2ccccc2C(Oc2ccc([N+](=O)[O-])cc2)C1", "note": "(stereo not drawn) [2-(3-N,N-dimethylaminopropyl)-4-(p-nitrophenoxy)-1,2,3,4-tetrahydroisoquinoline dihydrochloride]", "values": [{"measurement": "% Inhibition of phenyl-para-quinone induced writhing", "setting": "[1]; 14.7 mg/kg", "value": 50, "unit": "%"}]}
{"compound": "Clc1ccc(OC2CNCc3ccccc32)cc1", "note": "(stereo not drawn) [4-(p-Chlorophenoxy)-1,2,3,4-tetrahydroisoquinoline hydrochloride]", "values": [{"measurement": "inhibition in vivo at 23.4 mg/kg", "setting": "[3]; intraperitoneal, 23.4 mg/kg", "value": 50, "unit": "%"}]}
{"compound": "CN(C)CCCN1Cc2ccccc2C(Oc2cccc(C(F)(F)F)c2)C1.O=C(O)/C=C\\C(=O)O.O=C(O)/C=C\\C(=O)O", "note": "(stereo not drawn) [2-(3-Dimethylaminopropyl)-1,2,3,4-tetrahydro-4-(m-trifluoromethylphenoxy)isoquinoline dimaleate]", "values": [{"measurement": "% Inhibition of phenyl-para-quinone induced writhing", "setting": "[1]; 25.0 mg/kg", "value": 53, "unit": "%"}, {"measurement": "inhibition in vivo at 50 mg/kg", "setting": "[3]; intraperitoneal", "value": 100, "unit": "%"}]}
{"compound": "CN(C)CCCN1Cc2ccccc2C(Oc2ccc(Cl)cc2)C1", "note": "(stereo not drawn) [4-(p-Chlorophenoxy)-2-(3-dimethylaminopropyl)-1,2,3,4-tetrahydroisoquinoline dimaleate]", "values": [{"measurement": "inhibition in vivo at 50 mg/kg", "setting": "[3]; intraperitoneal", "value": 100, "unit": "%"}]}
{"compound": "CNC1=Nc2ccc(Cl)cc2C(c2ccccc2)=[N+]([O-])C1", "note": "[Chlorodiazepoxide, reference compound]", "values": [{"measurement": "inhibition in vivo at 8 mg/kg", "setting": "[3]", "value": 50, "unit": "%"}]}
{"compound": "C=C(CC)C(=O)c1ccc(OCC(=O)O)c(Cl)c1Cl", "note": "[ethacrynic acid, reference compound]", "values": [{"measurement": "Diuresis Drug to Urea Ratio (Vol.)", "setting": "[5]; 64 mg/kg", "value": 2.5}]}
{"compound": "CN1Cc2ccccc2C(Oc2ccc(C(F)(F)F)cc2)C1", "note": "(stereo not drawn) [4-(p-Trifluoromethylphenoxy)-2-methyl-1,2,3,4-tetrahydroisoquinoline oxalate]", "values": [{"measurement": "inhibition in vivo at 50 mg/kg", "setting": "[3]; intraperitoneal", "value": 50, "unit": "%"}]}
{"compound": "O=C(O)/C=C\\C(=O)O.O=[N+]([O-])c1ccc(OC2CNCc3ccccc32)cc1", "note": "(stereo not drawn) [4-(p-Nitrophenoxy)-1,2,3,4-tetrahydroisoquinoline maleate]", "values": [{"measurement": "% Inhibition of phenyl-para-quinone induced writhing", "setting": "[1]; 25.0 mg/kg", "value": 65, "unit": "%"}]}
{"compound": "FC(F)(F)c1cccc(OC2CNCc3ccccc32)c1", "note": "(stereo not drawn) [1,2,3,4-Tetrahydro-4-(m-trifluoromethylphenoxy)isoquinoline maleate]", "values": [{"measurement": "inhibition in vivo at 21 mg/kg", "setting": "[3]; intraperitoneal, 21.0 mg/kg", "value": 50, "unit": "%"}]}
{"compound": "FC(F)(F)c1ccc(OC2CN(CCCN3CCCCC3)Cc3ccccc32)cc1.O=C(O)C(=O)O.O=C(O)C(=O)O", "note": "(stereo not drawn) [2-(3-Piperidinopropyl)-1,2,3,4-tetrahydro-4-(p-trifluoromethylphenoxy)isoquinoline dioxalate]", "values": [{"measurement": "% Inhibition of phenyl-para-quinone induced writhing", "setting": "[1]; 15.4 mg/kg", "value": 50, "unit": "%"}, {"measurement": "Diuresis Drug to Urea Ratio (Vol.)", "setting": "[5]; 10 mg/kg", "value": 1.6}, {"measurement": "Sodium Drug to Urea Ratio", "setting": "[5]; 10 mg/kg", "value": 2.2}]}
{"compound": "CN(C)CCC=C1c2ccccc2CCc2ccccc21", "note": "[Amitriptyline, reference compound]", "values": [{"measurement": "ED50", "setting": "[2]; standard, unit inferred, read-out: ED50 (5-HTP potentiation), standard", "value": 7.1, "unit": "mg/kg"}, {"measurement": "inhibition of the ptosis of tetrabenazine-induced depression", "setting": "[4]; 2 mg/kg", "value": 50, "unit": "%"}]}
{"compound": "CCN(CC)CCN1Cc2ccccc2C(Oc2ccc(C(F)(F)F)cc2)C1", "note": "(stereo not drawn) [2-(2-N,N-Diethylaminoethyl)-4-(p-trifluoromethylphenoxy)-1,2,3,4-tetrahydroisoquinoline dioxalate]", "values": [{"measurement": "% Inhibition of phenyl-para-quinone induced writhing", "setting": "[1]; 21.8 mg/kg", "value": 50, "unit": "%"}, {"measurement": "Diuresis Drug to Urea Ratio (Vol.)", "setting": "[5]; 25 mg/kg", "value": 1.4}, {"measurement": "Sodium Drug to Urea Ratio", "setting": "[5]; 25 mg/kg", "value": 1.0}, {"measurement": "inhibition in vivo at 14.8 mg/kg", "setting": "[3]; intraperitoneal, 14.8 mg/kg", "value": 50, "unit": "%"}]}
{"compound": "CN(C)CCN1Cc2ccccc2C(Oc2ccc(C(F)(F)F)cc2)C1", "note": "(stereo not drawn) [2-(2-N,N--dimethylaminoethyl)-1,2,3,4-tetrahydro-4-(p-trifluoromethylphenoxy)isoquinoline]", "values": [{"measurement": "Diuresis Drug to Urea Ratio (Vol.)", "setting": "[5]; 25 mg/kg", "value": 1.1}, {"measurement": "Sodium Drug to Urea Ratio", "setting": "[5]; 25 mg/kg", "value": 1.4}]}
{"compound": "CN1C(=O)CN=C(c2ccccc2)c2cc(Cl)ccc21", "note": "[Diazepam, reference compound]", "values": [{"measurement": "inhibition in vivo at 1.7 mg/kg", "setting": "[3]", "value": 50, "unit": "%"}]}
{"compound": "CN1Cc2ccccc2C(Oc2ccc([N+](=O)[O-])cc2)C1", "note": "(stereo not drawn) [2-Methyl-4-(p-nitrophenoxy)-1,2,3,4-tetrahydroisoquinoline]", "values": [{"measurement": "ED50", "setting": "[2]; [6]", "value": 4.5, "unit": "mg/kg"}, {"measurement": "inhibition of the ptosis of tetrabenazine-induced depression", "setting": "[4]; 20 mg/kg", "value": 30, "unit": "%"}]}
{"compound": "Propoxyphene [reference compound]", "values": [{"measurement": "% Inhibition of phenyl-para-quinone induced writhing", "setting": "[1]; 3.9 mg/kg", "value": 50, "unit": "%"}]}
{"compound": "CN(C)CCN1Cc2ccccc2C(Oc2ccc(C(F)(F)F)cc2)C1", "note": "(stereo not drawn) [2-(2-N,N-Dimethylaminoethyl)-4-(p-trifluoromethylphenoxy)-1,2,3,4-tetrahydroisoquinoline dihydrochloride]", "values": [{"measurement": "% Inhibition of phenyl-para-quinone induced writhing", "setting": "[1]; 14.4 mg/kg", "value": 50, "unit": "%"}, {"measurement": "inhibition in vivo at 10.3 mg/kg", "setting": "[3]; intraperitoneal, 10.3 mg/kg", "value": 50, "unit": "%"}]}
{"compound": "O=C(O)COc1ccc(C(=O)c2cccs2)c(Cl)c1Cl", "note": "[tienilic acid, reference compound]", "values": [{"measurement": "Diuresis Drug to Urea Ratio (Vol.)", "setting": "[5]; 64 mg/kg", "value": 1.8}]}
{"compound": "FC(F)(F)c1ccc(OC2CNCc3ccccc32)cc1", "note": "(stereo not drawn) [1,2,3,4-Tetrahydro-4-(p-trifluoromethylphenoxy)isoquinoline hydrochloride]", "values": [{"measurement": "inhibition in vivo at 35 mg/kg", "setting": "[3]; intraperitoneal, 35.0 mg/kg", "value": 50, "unit": "%"}]}
